Measured values taken from BindingDB's records for doi:10.1016/j.ejmech.2012.01.025 (National Institute On Drug Abuse and The National Institute …, 2012).

Target: Delta-type opioid receptor (Homo sapiens, UniProt P41143)
Experiment: Displacement of [3H]-DADLE from human delta opioid receptor expressed in CHO cells membrane after 2 hrs by liquid scintillation counting

Chain of Delta-type opioid receptor (P41143 whole entry): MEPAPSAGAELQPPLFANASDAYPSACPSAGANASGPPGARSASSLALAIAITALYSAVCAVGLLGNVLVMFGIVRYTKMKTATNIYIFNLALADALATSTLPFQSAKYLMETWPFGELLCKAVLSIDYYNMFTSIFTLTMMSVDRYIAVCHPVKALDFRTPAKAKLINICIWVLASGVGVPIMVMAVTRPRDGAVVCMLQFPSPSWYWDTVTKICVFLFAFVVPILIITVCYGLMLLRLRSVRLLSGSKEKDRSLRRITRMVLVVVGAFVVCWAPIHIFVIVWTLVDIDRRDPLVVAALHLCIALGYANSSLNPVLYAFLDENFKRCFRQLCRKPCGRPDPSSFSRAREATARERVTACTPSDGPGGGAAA

Point of comparison: `CN1C[C@H](O)[C@]2(c3cccc(O)c3)CCC[C@H]1C2`, Ki 7.2 µM. Against it:
- CN1C[C@@H](O)[C@]2(c3cccc(O)c3)CCC[C@H]1C2 — higher, > 15 µM
- Oc1cccc([C@@]23CCC[C@@H](C2)N(CCc2ccccc2)C[C@@H]3O)c1 — within 1.5-fold, 5.8 µM
- CN1CC2(OCCO2)[C@]2(c3cccc(O)c3)CCC[C@H]1C2 — higher, > 7.8 µM
- CN1C2CCC[C@@](c3cccc(O)c3)(C2)[C@@H]1CO — higher, > 10 µM
- Oc1cccc([C@@]23CCC[C@@H](C2)N(CCc2ccccc2)C[C@H]3O)c1 — 7.2-fold lower, 1 µM
